The values below come from the kinase profiling compilation of Christmann-Franck et al. (2016).

Some targets named below: BMP2K (human) (UniProt Q9NSY1); BMPR1B (human) (UniProt O00238); BRSK2 (human) (UniProt Q8IWQ3); CSNK1G1 (human) (UniProt Q9HCP0); CSNK1G3 (human) (UniProt Q9Y6M4); MAP4K2 (human) (UniProt Q12851); MAP4K4 (human) (UniProt O95819); MYLK3 (human) (UniProt Q32MK0); PDGFRB (human) (UniProt P09619); PIM2 (human) (UniProt Q9P1W9); PLK4 (human) (UniProt O00444); RIPK2 (human) (UniProt O43353); STK17A (human) (UniProt Q9UEE5); TGFBR2 (human) (UniProt P37173); TTK (human) (UniProt P33981); CHUK (human) (UniProt O15111); DMPK (human) (UniProt Q09013); GSK3A (human) (UniProt P49840); MYLK4 (human) (UniProt Q86YV6); TAOK3 (human) (UniProt Q9H2K8); CSNK1D (human) (UniProt P48730); PHKG2 (human) (UniProt P15735); AURKB (human) (UniProt Q96GD4); MAPK8 (human) (UniProt P45983); PIP4K2B (human) (UniProt P78356); PIP5K1A (human) (UniProt Q99755); RPS6KA2 KD2 (human) (UniProt Q15349); RPS6KA6 KD2 (human) (UniProt Q9UK32); SRPK3 (human) (UniProt Q9UPE1); STK24 (human) (UniProt Q9Y6E0); TNK1 (human) (UniProt Q13470); PRKD3 (human) (UniProt O94806); RIOK3 (human) (UniProt O14730); ACVR1 (human) (UniProt Q04771); STK33 (human) (UniProt Q9BYT3).

Test in all cases: KINOMEscan competition binding
Settings in all cases: compound 10.0 µM

In experiment [1] the test system is FLT3 (human), P36888 [D835H].
Experiment [2] concerns FLT3 (human), P36888 [D835Y].
Experiment [3] relates to FLT3 (human), P36888 [ITD].
The subject of experiment [4] is FLT3 (human), P36888 [N841I].

Chain of MYLK4 (human) (Q86YV6 whole entry, looked up): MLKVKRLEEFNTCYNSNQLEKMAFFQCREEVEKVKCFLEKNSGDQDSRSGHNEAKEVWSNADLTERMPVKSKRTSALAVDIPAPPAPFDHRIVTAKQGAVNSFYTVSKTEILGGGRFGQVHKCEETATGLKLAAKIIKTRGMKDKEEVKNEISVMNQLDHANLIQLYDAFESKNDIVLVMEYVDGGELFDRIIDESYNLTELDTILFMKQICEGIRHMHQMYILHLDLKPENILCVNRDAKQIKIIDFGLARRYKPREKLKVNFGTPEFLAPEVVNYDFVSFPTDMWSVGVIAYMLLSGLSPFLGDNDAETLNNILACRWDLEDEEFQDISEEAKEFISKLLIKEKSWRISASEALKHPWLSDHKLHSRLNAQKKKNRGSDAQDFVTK
Chain of MAP4K4 (human) (O95819 whole entry, looked up): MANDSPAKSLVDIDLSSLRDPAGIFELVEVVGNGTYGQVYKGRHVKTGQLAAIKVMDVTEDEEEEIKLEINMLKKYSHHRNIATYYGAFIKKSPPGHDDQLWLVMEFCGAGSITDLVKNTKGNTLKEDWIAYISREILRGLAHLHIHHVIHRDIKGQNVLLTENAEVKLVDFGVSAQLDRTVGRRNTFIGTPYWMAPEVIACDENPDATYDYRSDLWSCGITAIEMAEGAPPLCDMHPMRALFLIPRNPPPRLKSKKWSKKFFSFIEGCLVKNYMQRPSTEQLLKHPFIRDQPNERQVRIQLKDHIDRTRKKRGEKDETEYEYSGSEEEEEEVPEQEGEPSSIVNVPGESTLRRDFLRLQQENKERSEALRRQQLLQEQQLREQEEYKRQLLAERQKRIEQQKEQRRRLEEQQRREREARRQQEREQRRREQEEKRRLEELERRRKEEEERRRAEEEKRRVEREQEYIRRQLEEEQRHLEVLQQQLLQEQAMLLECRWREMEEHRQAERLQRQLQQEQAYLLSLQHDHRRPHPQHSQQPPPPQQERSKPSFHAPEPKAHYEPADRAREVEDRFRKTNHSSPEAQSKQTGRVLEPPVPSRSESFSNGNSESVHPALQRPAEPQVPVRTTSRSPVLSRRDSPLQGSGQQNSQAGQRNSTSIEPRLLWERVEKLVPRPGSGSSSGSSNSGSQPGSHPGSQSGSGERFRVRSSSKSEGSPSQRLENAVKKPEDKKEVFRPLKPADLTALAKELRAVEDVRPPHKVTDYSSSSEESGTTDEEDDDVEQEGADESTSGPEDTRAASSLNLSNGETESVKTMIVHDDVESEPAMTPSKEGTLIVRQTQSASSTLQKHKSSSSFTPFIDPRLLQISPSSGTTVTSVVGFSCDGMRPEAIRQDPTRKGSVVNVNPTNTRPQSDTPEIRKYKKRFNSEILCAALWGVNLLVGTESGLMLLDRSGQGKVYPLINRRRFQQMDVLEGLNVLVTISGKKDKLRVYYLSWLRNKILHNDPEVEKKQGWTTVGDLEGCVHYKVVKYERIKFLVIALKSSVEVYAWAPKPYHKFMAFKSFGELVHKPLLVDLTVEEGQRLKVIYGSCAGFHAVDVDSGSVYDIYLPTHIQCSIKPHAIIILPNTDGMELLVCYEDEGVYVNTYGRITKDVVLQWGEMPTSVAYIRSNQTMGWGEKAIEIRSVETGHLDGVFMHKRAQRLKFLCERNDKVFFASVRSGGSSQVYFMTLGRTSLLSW
Chain of BRSK2 (human) (Q8IWQ3 whole entry, looked up): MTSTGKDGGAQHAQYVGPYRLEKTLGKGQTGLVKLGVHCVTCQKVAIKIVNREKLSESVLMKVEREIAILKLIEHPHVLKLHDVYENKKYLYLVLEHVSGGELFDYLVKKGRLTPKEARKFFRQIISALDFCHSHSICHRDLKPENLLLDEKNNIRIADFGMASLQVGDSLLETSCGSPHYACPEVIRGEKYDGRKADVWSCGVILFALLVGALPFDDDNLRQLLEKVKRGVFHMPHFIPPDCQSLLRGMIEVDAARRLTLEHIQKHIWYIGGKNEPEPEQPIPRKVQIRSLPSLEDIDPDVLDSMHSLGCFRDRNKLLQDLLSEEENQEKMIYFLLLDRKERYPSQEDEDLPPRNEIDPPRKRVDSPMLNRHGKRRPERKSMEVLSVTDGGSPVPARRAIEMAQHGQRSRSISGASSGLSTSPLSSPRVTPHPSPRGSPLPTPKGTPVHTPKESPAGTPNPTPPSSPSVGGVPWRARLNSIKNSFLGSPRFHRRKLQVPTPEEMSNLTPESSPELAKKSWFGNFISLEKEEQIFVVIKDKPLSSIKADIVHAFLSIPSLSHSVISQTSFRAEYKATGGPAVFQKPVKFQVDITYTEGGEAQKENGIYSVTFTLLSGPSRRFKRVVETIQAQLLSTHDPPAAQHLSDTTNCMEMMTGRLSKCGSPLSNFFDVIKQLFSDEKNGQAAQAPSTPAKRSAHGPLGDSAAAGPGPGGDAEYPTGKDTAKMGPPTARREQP
Chain of BMP2K (human) (Q9NSY1 whole entry, looked up): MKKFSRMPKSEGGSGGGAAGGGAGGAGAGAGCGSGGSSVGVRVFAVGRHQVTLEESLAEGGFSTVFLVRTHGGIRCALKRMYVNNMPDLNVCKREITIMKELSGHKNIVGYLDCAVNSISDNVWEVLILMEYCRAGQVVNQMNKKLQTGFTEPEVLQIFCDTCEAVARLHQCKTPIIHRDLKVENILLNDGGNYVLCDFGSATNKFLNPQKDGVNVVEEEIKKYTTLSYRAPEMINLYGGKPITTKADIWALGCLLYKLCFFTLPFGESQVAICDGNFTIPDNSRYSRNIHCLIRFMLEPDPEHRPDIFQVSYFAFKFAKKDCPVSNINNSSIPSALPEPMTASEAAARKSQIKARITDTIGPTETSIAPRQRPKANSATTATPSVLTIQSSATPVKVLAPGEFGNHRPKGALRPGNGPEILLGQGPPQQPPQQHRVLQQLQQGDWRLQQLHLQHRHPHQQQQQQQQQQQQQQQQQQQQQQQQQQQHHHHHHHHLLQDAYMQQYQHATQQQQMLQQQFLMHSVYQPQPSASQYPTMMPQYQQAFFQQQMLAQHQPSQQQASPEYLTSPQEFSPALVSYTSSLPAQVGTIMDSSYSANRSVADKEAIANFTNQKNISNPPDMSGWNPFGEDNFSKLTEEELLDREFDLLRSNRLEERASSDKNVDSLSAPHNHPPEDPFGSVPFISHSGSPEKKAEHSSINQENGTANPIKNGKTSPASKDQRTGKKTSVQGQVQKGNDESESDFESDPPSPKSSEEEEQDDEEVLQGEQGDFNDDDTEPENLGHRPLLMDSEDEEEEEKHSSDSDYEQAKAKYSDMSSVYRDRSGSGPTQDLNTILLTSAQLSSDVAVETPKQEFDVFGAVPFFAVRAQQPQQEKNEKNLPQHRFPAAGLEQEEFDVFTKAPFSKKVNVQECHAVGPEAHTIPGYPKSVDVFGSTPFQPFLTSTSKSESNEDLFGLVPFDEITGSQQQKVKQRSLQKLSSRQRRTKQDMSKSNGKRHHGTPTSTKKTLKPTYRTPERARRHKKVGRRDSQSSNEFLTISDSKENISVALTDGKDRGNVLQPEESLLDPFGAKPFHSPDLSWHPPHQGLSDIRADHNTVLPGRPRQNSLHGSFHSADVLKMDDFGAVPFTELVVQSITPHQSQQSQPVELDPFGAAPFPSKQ
Chain of TTK (human) (P33981 whole entry, looked up): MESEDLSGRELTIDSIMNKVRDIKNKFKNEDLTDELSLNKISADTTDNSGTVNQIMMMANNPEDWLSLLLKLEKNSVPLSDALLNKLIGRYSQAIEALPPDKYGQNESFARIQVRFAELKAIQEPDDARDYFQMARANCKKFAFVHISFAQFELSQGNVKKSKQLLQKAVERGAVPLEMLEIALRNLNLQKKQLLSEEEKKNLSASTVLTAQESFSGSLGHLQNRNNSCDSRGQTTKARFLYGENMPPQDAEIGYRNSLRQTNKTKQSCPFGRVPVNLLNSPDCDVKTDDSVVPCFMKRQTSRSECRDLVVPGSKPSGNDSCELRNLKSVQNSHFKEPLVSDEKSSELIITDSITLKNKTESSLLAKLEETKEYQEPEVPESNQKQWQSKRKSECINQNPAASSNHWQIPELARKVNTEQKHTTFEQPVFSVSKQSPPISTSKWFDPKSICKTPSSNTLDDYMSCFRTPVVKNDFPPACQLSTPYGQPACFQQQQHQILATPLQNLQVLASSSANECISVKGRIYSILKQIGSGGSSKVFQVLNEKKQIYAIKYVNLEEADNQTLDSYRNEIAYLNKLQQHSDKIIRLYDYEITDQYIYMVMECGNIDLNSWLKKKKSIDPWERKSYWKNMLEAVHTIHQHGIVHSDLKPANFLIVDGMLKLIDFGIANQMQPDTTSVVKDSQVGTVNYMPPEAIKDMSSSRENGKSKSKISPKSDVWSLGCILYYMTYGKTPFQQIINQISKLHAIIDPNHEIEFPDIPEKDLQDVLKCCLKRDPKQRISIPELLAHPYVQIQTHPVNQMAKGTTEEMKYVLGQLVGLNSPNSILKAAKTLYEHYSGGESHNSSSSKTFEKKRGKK
Chain of TGFBR2 (human) (P37173 whole entry, looked up): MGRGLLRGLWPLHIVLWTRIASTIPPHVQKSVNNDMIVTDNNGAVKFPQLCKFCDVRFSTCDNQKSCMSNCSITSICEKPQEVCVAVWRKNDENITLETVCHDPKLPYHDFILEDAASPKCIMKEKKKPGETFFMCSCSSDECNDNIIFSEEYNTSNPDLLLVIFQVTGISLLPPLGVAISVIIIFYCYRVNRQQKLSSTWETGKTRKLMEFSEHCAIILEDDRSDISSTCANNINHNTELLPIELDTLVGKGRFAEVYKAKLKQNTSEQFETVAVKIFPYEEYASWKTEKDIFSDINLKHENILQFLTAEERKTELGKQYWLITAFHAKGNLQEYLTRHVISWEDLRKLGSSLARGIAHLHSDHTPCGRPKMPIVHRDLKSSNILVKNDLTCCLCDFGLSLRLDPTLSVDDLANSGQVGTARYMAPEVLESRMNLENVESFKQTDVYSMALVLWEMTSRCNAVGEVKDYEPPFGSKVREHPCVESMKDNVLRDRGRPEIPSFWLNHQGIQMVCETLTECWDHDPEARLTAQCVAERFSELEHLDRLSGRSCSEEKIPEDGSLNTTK

Take `CS(=O)(=O)Nc1ccc(-c2ncc(/C=C3\SC(=N)NC3=O)s2)cc1`: the kinase still bound, per cent of control at BMP2K (human) is 29%; at BMPR1B (human), 14%; on BRSK2 (human), 28%; on CSNK1G1 (human), 22%; on CSNK1G3 (human) it was 8.3%; in experiment [1], 23%. Besides, the kinase still bound, per cent of control in experiment [2] worked out at 12%; at MAP4K2 (human), 29%; on MAP4K4 (human), 7.9%; on MYLK3 (human) it was 2.6%; at PDGFRB (human) it was 10%; at PIM2 (human), 4.3%. The kinase still bound, per cent of control on PLK4 (human) is 11%; at RIPK2 (human), 6.6%; on STK17A (human), 2%; on TGFBR2 (human), 12%; at TTK (human), 19%.

On to `N=C1NC(=O)/C(=C/c2ccc(-c3ccc(C(N)=O)cc3O)o2)S1`, for which the kinase still bound, per cent of control was found to be 17% on BRSK2 (human); 16% on CHUK (human); 14% on DMPK (human); 17% on GSK3A (human); 22% at MYLK3 (human); 6% on MYLK4 (human). The kinase still bound, per cent of control at PIM2 (human) stood at 0.8%; on PLK4 (human), 8.8%; on STK17A (human), 0.3%; on TAOK3 (human), 13%; on TGFBR2 (human), 9%; at TTK (human), 34%.

`N=C1NC(=O)/C(=C/c2ccc(-c3ccc(F)cc3O)o2)S1`: the kinase still bound, per cent of control at BMPR1B (human) was found to be 12%; on BRSK2 (human) it was 23%; at CHUK (human) it was 15%; at CSNK1D (human), 24%; at MYLK3 (human), 16%; on MYLK4 (human) it was 8.1%. The kinase still bound, per cent of control at PHKG2 (human) was determined as 15%; at PIM2 (human), 1.4%; on PLK4 (human), 4.6%; at RIPK2 (human), 34%; on STK17A (human) it was 0.3%; at TAOK3 (human) it was 0.2%. Also, the kinase still bound, per cent of control at TGFBR2 (human) came to 5%.

`CN1C(=O)[C@H]2CCC[C@H]2N(C2CCCC2)c2nc(Nc3ccc(C(N)=O)cc3)ncc21`: the kinase still bound, per cent of control on AURKB (human) was 8.6%; on BMP2K (human), 12%; on CSNK1G1 (human), 23%; on CSNK1G3 (human), 17%; in experiment [1], 11%; in [2], 2.6%. Further, the kinase still bound, per cent of control came out at 20% in experiment [3]; 5.2% in experiment [4]; 13% at MAP4K2 (human); 3.5% on MAP4K4 (human); 29% on MAPK8 (human); 5.5% on MYLK3 (human). Also, the kinase still bound, per cent of control at MYLK4 (human) came to 30%; at PIP4K2B (human), 9.6%; on PIP5K1A (human) it was 29%; on PLK4 (human) it was 1.6%; on RPS6KA2 KD2 (human), 20%; at RPS6KA6 KD2 (human), 13%. The kinase still bound, per cent of control at SRPK3 (human) is 27%; at STK17A (human) it was 0.05%; on STK24 (human) it was 16%; at TAOK3 (human), 10%; on TNK1 (human), 2%; at TTK (human) it was 14%.

For the compound `N=C1NC(=O)/C(=C/c2ccc(-c3ccccc3O)o2)S1`, the kinase still bound, per cent of control is 14% at BMP2K (human); 8.8% on BMPR1B (human); 29% on BRSK2 (human); 9.5% at CHUK (human); 29% on MYLK3 (human); 5.9% at MYLK4 (human). The kinase still bound, per cent of control was found to be 16% at PHKG2 (human); 1.4% on PIM2 (human); 28% on PIP4K2B (human); 11% at PIP5K1A (human); 3.2% at PLK4 (human); 28% on PRKD3 (human). The kinase still bound, per cent of control amounted to 20% on RIOK3 (human), 0.4% at STK17A (human), 0.05% at TAOK3 (human) and 3.6% on TGFBR2 (human).

Turning to `N=C1NC(=O)/C(=C/c2c[nH]c(=O)c(-c3ccc(N4CCNCC4)nc3)c2)S1`, the kinase still bound, per cent of control amounted to 29% on ACVR1 (human); 6.3% at BMP2K (human); 11% at BMPR1B (human); 18% on DMPK (human); 23% in [2]; 32% on MAP4K2 (human). For the same compound, the kinase still bound, per cent of control on MAP4K4 (human) came to 9%; at PIM2 (human) it was 1.8%; on PIP4K2B (human) it was 8.4%; on PIP5K1A (human) it was 14%; at RIOK3 (human) it was 9.4%; at RIPK2 (human), 27%. Moreover, the kinase still bound, per cent of control on RPS6KA2 KD2 (human) stood at 33%; at SRPK3 (human), 23%; at STK17A (human), 0.35%; at STK33 (human) it was 7.2%; at TGFBR2 (human), 33%.

As to `N=C1NC(=O)/C(=C/c2ccc(-c3csc4ccccc34)o2)S1`, the kinase still bound, per cent of control is 18% at BRSK2 (human); 34% at CSNK1D (human); 19% in experiment [2]; 0% on GSK3A (human); 34% on MAPK8 (human); 21% on MYLK3 (human). Further, the kinase still bound, per cent of control at MYLK4 (human) is 32%; on PIM2 (human), 0.3%; on PIP4K2B (human), 26%; at PIP5K1A (human) it was 30%; at PLK4 (human) it was 5.2%; on RPS6KA2 KD2 (human), 21%. The kinase still bound, per cent of control at RPS6KA6 KD2 (human) came to 18%; on STK17A (human), 0.05%; on STK24 (human), 18%; on TGFBR2 (human), 2.4%; at TNK1 (human), 31%.
